# Source: patent US10329295B2, “Pyrrolotriazine inhibitors of IRAK4 activity” (MERCK SHARP & DOHME CORP., priority 2015, dated 2019)
# Counter-ions that a name gives are not always drawn.
# Molecular target: GST tagged IRAK4 (Homo sapiens (Human), UniProt Q9NWZ3)
# Assay: IRAK4 Kinase Assay (IMAP fluorescence polarization)
# Type: biochemical
# Settings: 0.5 nM GST tagged IRAK4, 100 μM ATP, 30 minutes at 25° C.
# In short: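 Phosphorylation of a fluorescent peptide (100 nM) was detected by IMAP nanoparticle binding as increased fluorescence polarization. The enzyme was GST-tagged IRAK4 at 0.5 nM, with 100 μM ATP, 1 mM MgCl2 and Tris-HCl pH 7.2. ATP-initiated reactions ran 30 minutes at 25° C.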
# Chain of GST tagged IRAK4 (Q9NWZ3 whole entry): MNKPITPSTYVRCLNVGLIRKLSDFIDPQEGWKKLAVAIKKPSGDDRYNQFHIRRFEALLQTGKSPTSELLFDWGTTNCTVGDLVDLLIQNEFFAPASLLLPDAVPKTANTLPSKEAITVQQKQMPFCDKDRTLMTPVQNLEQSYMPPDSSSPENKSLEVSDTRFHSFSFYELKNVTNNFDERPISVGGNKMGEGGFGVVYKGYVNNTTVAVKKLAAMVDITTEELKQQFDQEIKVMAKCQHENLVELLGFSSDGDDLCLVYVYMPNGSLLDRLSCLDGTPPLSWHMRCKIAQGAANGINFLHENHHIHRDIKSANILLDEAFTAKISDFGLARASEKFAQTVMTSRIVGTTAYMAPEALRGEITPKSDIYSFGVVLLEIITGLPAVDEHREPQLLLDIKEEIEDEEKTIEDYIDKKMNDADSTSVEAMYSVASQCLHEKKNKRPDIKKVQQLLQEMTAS
row,IC50,Compound
1,1 nM,"Cn1cc(NC(=O)c2ccc3cnc(N[C@H]4CCCCNC4)nn23)c(C(F)F)n1 (single isomer, unassigned) [Example 91, 2-[(3S)- or (3R)-azepan-3-ylamino]-N-[3-(difluoromethyl)-1-methyl-1H-pyrazol-4-yl]pyrrolo[2,1-f][1,2,4]triazine-7-carboxamide trifluoroacetate]"
2,1 nM,"Cn1cc(NC(=O)c2ccc3cnc(N[C@@H]4CCCC[C@@H]4N)nn23)c(C#N)n1 [Example 35, 2-{[(1R,2S)-2-aminocyclohexyl]amino}-N-(3-cyano-1-methyl-1H-pyrazol-4-yl)pyrrolo[2,1-f][1,2,4]triazine-7-carboxamide trifluoroacetate]"
3,5 nM,"Cn1cc(NC(=O)c2ccc3cnc(N[C@H]4CCCCNC4)nn23)c(C(F)(F)F)n1 (single isomer, unassigned) [Example 69, 2-[(3S)- or (3R)-azepan-3-ylamino]-N-[1-methyl-3-(trifluoromethyl)-1H-pyrazol-4-yl]pyrrolo[2,1-f][1,2,4]triazine-7-carboxamide trifluoroacetate]"
4,86 nM,"Cn1cc(NC(=O)c2ccc3cnc(N[C@@H]4CCCC(F)(F)[C@@H]4N)nn23)c(C#N)n1 [Example 98, 2-{[(1R,2R)-2-amino-3,3-difluorocyclohexyl]amino}-N-(3-cyano-1-methyl-1H-pyrazol-4-yl)pyrrolo[2,1-f][1,2,4]triazine-7-carboxamide trifluoroacetate]"
5,4 nM,"N#Cc1cscc1NC(=O)c1ccc2cnc(N[C@@H]3CCCC[C@@H]3N)nn12 [Example 13, 2-{[(1R,2S)-2-aminocyclohexyl]amino}-N-(4-cyanothiophen-3-yl)pyrrolo[2,1-f][1,2,4]triazine-7-carboxamide trifluoroacetate]"
6,53 nM,"Cn1cc(NC(=O)c2ccc3cnc(N[C@@H]4CNC[C@H](F)C4)nn23)c(C(F)(F)F)n1 [Example 154, 2-{[(3S,5R)-5-fluoropiperidin-3-yl]amino}-N-[1-methyl-3-(trifluoromethyl)-1H-pyrazol-4-yl]pyrrolo[2,1-f][1,2,4]triazine-7-carboxamide]"
7,7 nM,"N#Cc1sccc1NC(=O)c1ccc2cnc(N3CCC[C@H](N)C3)nn12 [Example 152, 2-[(3S)-3-aminopiperidin-1-yl]-N-(2-cyanothiophen-3-yl)pyrrolo[2,1-f][1,2,4]triazine-7-carboxamide trifluoroacetate]"
8,218 nM,"O=C(Nc1ccccc1C(F)(F)F)c1ccc2cnc(N3C[C@H]4CC[C@@H]3CN4)nn12 (single isomer, unassigned) [Example 68, 2-[(1S,4S)- or (1R,4R)-2,5-diazabicyclo[2.2.2]oct-2-yl]-N-[2-(trifluoromethyl)phenyl]-pyrrolo[2,1-f][1,2,4]triazine-7-carboxamide trifluoroacetate]"
9,88 nM,"O=C(Nc1cscc1C(F)F)c1ccc2cnc(N3CCCNCC3)nn12 [Example 41, 2-(1,4-diazepan-1-yl)-N-[4-(difluoromethyl)thiophen-3-yl]pyrrolo[2,1-f][1,2,4]triazine-7-carboxamide trifluoroacetate]"
10,1450 nM,"O=C(Nc1ccccc1C(F)(F)F)c1ccc2cnc(N3C[C@@H]4CC[C@H]3CN4)nn12 (single isomer, unassigned) [Example 78, 2-[(1S,4S)- or (1R,4R)-2,5-diazabicyclo[2.2.2]oct-2-yl]-N-[2-(trifluoromethyl)phenyl]-pyrrolo[2,1-f][1,2,4]triazine-7-carboxamide trifluoroacetate]"
11,4 nM,"N[C@H]1CCCC[C@H]1Nc1ncc2ccc(C(=O)Nc3cscc3C(F)F)n2n1 [Example 42, 2-{[(1R,2S)-2-aminocyclohexyl]amino}-N-[4-(difluoromethyl)thiophen-3-yl]pyrrolo[2,1-f][1,2,4]triazine-7-carboxamide trifluoroacetate]"

# The next lines start with the compound.
row,Compound,IC50
1,"O=C(Nc1ccsc1Br)c1ccc2cnc(N3CCCNCC3)nn12 [Example 37, N-(2-bromothiophen-3-yl)-2-(1,4-diazepan-1-yl)pyrrolo[2,1-f][1,2,4]triazine-7-carboxamide trifluoroacetate]",1670 nM
2,"Cn1cc(NC(=O)c2ccc3cnc(N4C[C@@H](N)C[C@H](F)C4)nn23)c(C(F)(F)F)n1 [Example 150, 2-[(3S,5S)-3-amino-5-fluoropiperidin-1-yl]-N-[1-methyl-3-(trifluoromethyl)-1H-pyrazol-4-yl]pyrrolo[2,1-f][1,2,4]triazine-7-carboxamide trifluoroacetate]",10 nM
3,"Cn1cc(NC(=O)c2ccc3cnc(N4CC5CCC4CN5)nn23)c(C(F)F)n1 (stereo not drawn) [Example 29, 2-(2,5-diazabicyclo[2.2.2]oct-2-yl)-N-[3-(difluoromethyl)-1-methyl-1H-pyrazol-4-yl]pyrrolo[2,1-f][1,2,4]triazine-7-carboxamide trifluoroacetate]",7 nM
4,"Cn1cc(NC(=O)c2ccc3cnc(N[C@@H]4CCCC[C@@H]4N)nn23)c(C(F)(F)F)n1 [Example 2, 2-{[(1R,2S)-2-aminocyclohexyl]amino}-N-[1-methyl-3-(trifluoromethyl)-1H-pyrazol-4-yl]pyrrolo[2,1-f][1,2,4]triazine-7-carboxamide trifluoroacetate]",2 nM
5,"N#Cc1sccc1NC(=O)c1ccc2cnc(N3CCCNCC3)nn12 [Example 43, N-(2-cyanothiophen-3-yl)-2-(1,4-diazepan-1-yl)pyrrolo[2,1-f][1,2,4]triazine-7-carboxamide trifluoroacetate]",1040 nM
6,"O=C(Nc1cscc1Cl)c1ccc2cnc(N3C[C@H]4CC[C@@H]3CN4)nn12 (single isomer, unassigned) [Example 108, N-(4-chlorothiophen-3-yl)-2-[(1S,4S)- or (1R,4R)-2,5-diazabicyclo[2.2.2]oct-2-yl]pyrrolo[2,1-f][1,2,4]triazine-7-carboxamide trifluoroacetate]",198 nM
7,"N[C@@H]1[C@H](Nc2ncc3ccc(C(=O)Nc4ccccc4Cl)n3n2)CCCC1(F)F [Example 138, 2-{[(1R,2R)-2-amino-3,3-difluorocyclohexyl]amino}-N-(2-chlorophenyl)pyrrolo[2,1-f][1,2,4]triazine-7-carboxamide trifluoroacetate]",1640 nM
8,"N[C@@H]1[C@H](Nc2ncc3ccc(C(=O)Nc4ccccc4C(F)(F)F)n3n2)CCCC1(F)F [Example 137, 2-{[(1R,2R)-2-amino-3,3-difluorocyclohexyl]amino}-N-[2-(trifluoromethyl)phenyl]-pyrrolo[2,1-f][1,2,4]triazine-7-carboxamide trifluoroacetate]",2190 nM
9,"O=C(Nc1ccsc1Cl)c1ccc2cnc(N3CCCNCC3)nn12 [Example 31, N-(2-chlorothiophen-3-yl)-2-(1,4-diazepan-1-yl)pyrrolo[2,1-f][1,2,4]triazine-7-carboxamide trifluoroacetate]",866 nM
10,"Cn1cc(NC(=O)c2ccc3cnc(N[C@@H]4CNC[C@@H](F)C4)nn23)c(C(F)(F)F)n1 [Example 161, 2-{[(3S,5S)-5-fluoropiperidin-3-yl]amino}-N-[1-methyl-3-(trifluoromethyl)-1H-pyrazol-4-yl]pyrrolo[2,1-f][1,2,4]triazine-7-carboxamide trifluoroacetate]",4 nM
11,"Cn1cc(NC(=O)c2ccc3cnc(N4CCCNCC4)nn23)c(C(F)(F)F)n1 [Example 6, 2-(1,4-diazepan-1-yl)-N-[1-methyl-3-(trifluoromethyl)-1H-pyrazol-4-yl]pyrrolo[2,1-f][1,2,4]triazine-7-carboxamide trifluoroacetate]",94 nM
12,"N[C@H]1CCCC[C@H]1Nc1ncc2ccc(C(=O)Nc3cscc3Cl)n2n1 [Example 109, 2-{[(1R,2S)-2-aminocyclohexyl]amino}-N-(4-chlorothiophen-3-yl)pyrrolo[2,1-f][1,2,4]triazine-7-carboxamide trifluoroacetate]",2 nM
13,"Cn1cc(NC(=O)c2ccc3cnc(N4CCC[C@@H](N)C4)nn23)c(C(F)F)n1 [Example 18, 2-[(3R)-3-aminopiperidin-1-yl]-N-[3-(difluoromethyl)-1-methyl-1H-pyrazol-4-yl]pyrrolo[2,1-f][1,2,4]triazine-7-carboxamide trifluoroacetate]",0.5 nM
14,"Cn1cc(NC(=O)c2ccc3cnc(N[C@@H]4CCCC(F)(F)[C@@H]4N)nn23)c(Cl)n1 [Example 79, 2-{[(1R,2R)-2-amino-3,3-difluorocyclohexyl]amino}-N-(3-chloro-1-methyl-1H-pyrazol-4-yl)pyrrolo[2,1-f][1,2,4]triazine-7-carboxamide trifluoroacetate]",229 nM
15,"N[C@H]1CCCC[C@H]1Nc1ncc2ccc(C(=O)Nc3ccccc3C(F)(F)F)n2n1 [Example 27, 2-{[(1R,2S)-2-aminocyclohexyl]amino}-N-[2-(trifluoromethyl)phenyl]-pyrrolo[2,1-f][1,2,4]triazine-7-carboxamide trifluoroacetate]",392 nM
16,"N#Cc1cscc1NC(=O)c1ccc2cnc(N3CCCNCC3)nn12 [Example 12, N-(4-cyanothiophen-3-yl)-2-(1,4-diazepan-1-yl)pyrrolo[2,1-f][1,2,4]triazine-7-carboxamide trifluoroacetate]",365 nM
17,"Cn1cc(NC(=O)c2ccc3cnc(N[C@H]4CNC[C@H](F)C4)nn23)c(C(F)F)n1 [Example 165, N-[3-(difluoromethyl)-1-methyl-1H-pyrazol-4-yl]-2-{[(3R,5R)-5-fluoropiperidin-3-yl]amino}pyrrolo[2,1-f][1,2,4]triazine-7-carboxamide trifluoroacetate]",1 nM
18,"N#Cc1ccccc1NC(=O)c1ccc2cnc(N[C@@H]3CCCC[C@@H]3N)nn12 [Example 50, 2-{[(1R,2S)-2-aminocyclohexyl]amino}-N-(2-cyanophenyl)pyrrolo[2,1-f][1,2,4]triazine-7-carboxamide trifluoroacetate]",11 nM
19,"N#Cc1ccccc1NC(=O)c1ccc2cnc(N3C[C@H]4CC[C@@H]3CN4)nn12 (single isomer, unassigned) [Example 75, N-(2-cyanophenyl)-2-[(1S,4S)- or (1R,4R)-2,5-diazabicyclo[2.2.2]oct-2-yl]pyrrolo[2,1-f][1,2,4]triazine-7-carboxamide trifluoroacetate]",4000 nM
